Structures are written as SMILES.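 These data come from cells grown in 96-well plates and exposed to compound for 48 hours at five concentrations. TGI: concentration producing complete growth inhibition.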

We go through 16 molecules from PubChem BioAssay (NCI).

Common to all, as to experiment: inhibition of tumour cell growth, NCI panel, 48 h
Test [1] deals with CAKI-1 renal.
Test [2] has as its system SK-MEL-28 melanoma.
For test [3], the system named is COLO 205 colon.
Test [4] has as its system UACC-62 melanoma.
Test [5] concerns OVCAR-4 ovarian.
For test [6], the system named is NCI-H522 lung.
Test [7] has as its system SN12C renal.
Test [8] concerns RXF 393 renal.
The test system of test [9] is T-47D breast.
The subject of test [10] is SR leukemia.

For the molecule `O=C1Nc2ccccc2C12CCNC2Cc1ccccc1` (stereo not drawn), the TGI in test [1], in [2], in test [3], in test [4] and in test [5] was more than 100 µM in each case.
For `Cc1nc(Nc2ccc(Cl)cc2)sc1C(=O)NNc1ccc([N+](=O)[O-])cc1[N+](=O)[O-]`, the TGI is 29.6 µM in [6]; 44.1 µM in test [1]; 34.1 µM in test [2]; 39.9 µM in [3]; 36.2 µM in test [7]; 28.6 µM in [4]. In addition, the TGI was determined as 30.7 µM in [8] and 35.3 µM in test [5].
For the molecule `[N-]=[N+]=C1N=CN=C1c1ncn[nH]1`, the TGI was more than 100 µM in test [6]; 37.5 µM in test [1]; 83 µM in test [9]; more than 100 µM in test [2]; more than 100 µM in test [3]; 93.9 µM in test [7]. Further, the TGI in [4] is 56.3 µM; in test [8], more than 100 µM; in test [5], more than 100 µM.
On to `COC(=O)/C=C1/CCC(C(=O)OC)N1` (stereo not drawn), for which the TGI in [1], in [2], in test [3], in test [7], in test [4] and in [8] was more than 100 µM in each case. Moreover, the TGI in [5] and in test [10] was more than 100 µM throughout.
As to `O=C(/N=C/c1c(O)c2ccccc2oc1=O)Nc1ccccc1`, the TGI in test [6] is more than 100 µM; in [1], 55.3 µM; in test [2] it was more than 100 µM; in [3], more than 100 µM; in [7] it was more than 100 µM; in test [4], more than 100 µM. Besides, the TGI in test [8] is 91.8 µM; in test [5], more than 100 µM; in test [10] it was more than 100 µM.
`COC(=O)[C@@H]1[C@@H](c2cccc(Cl)c2)[C@H](C(=O)OC)C2(C[C@@]1(C)O)NCCS2` (stereo partly drawn): the TGI in test [6], in [1], in [9], in [2], in [3] and in test [7] was more than 100 µM in each case. Also, the TGI in test [4], in test [8] and in [5] was more than 100 µM in each case.
With `COc1cc2c(cc1OC)C(C(CO)CO)N(CC(O)CCl)CC2` (stereo not drawn), the TGI in [6], in [1], in test [2], in test [3], in [4] and in test [5] was more than 100 µM throughout.
Take `CC(=O)[C@@]1(C)CC2(CCN(C)CC2)OC1C` (stereo partly drawn): the TGI in test [6], in test [1], in test [9], in test [2], in test [3] and in test [7] was more than 100 µM throughout. In addition, the TGI in test [8] and in test [5] was more than 100 µM throughout.
For the molecule `Cc1nc(C)c(C(=O)NNC(N)=S)cc1C(=O)NNC(N)=S`, the TGI in test [6], in [1], in [9], in [2], in [3] and in test [7] was more than 100 µM each time. The TGI in test [4], in test [8] and in test [5] was more than 100 µM in each case.
In the case of `COC(=O)C1=C(C(=O)OC)C(C(=O)c2ccc(Br)cc2)N2N=C(c3ccc(Cl)cc3)C=CC12` (stereo not drawn), the TGI in test [6], in [1], in [2], in test [3], in test [7] and in test [4] was more than 100 µM each time. Further, the TGI in [5] and in test [10] was more than 100 µM each time.
Take `COC(=O)C1Cc2c(OC)ccc(OC)c2CC(C(=O)OC)C1=O` (stereo not drawn): the TGI in test [6], in test [1], in [9], in test [2], in test [3] and in test [7] was more than 100 µM in each case. Moreover, the TGI in test [4], in test [8] and in [5] was more than 100 µM each time.
Turning to `Cc1ccsc1/C=N/Nc1nc2ccccc2s1`, the TGI in test [1] was 36.1 µM; in [9], more than 100 µM; in test [2] it was more than 100 µM; in test [3], more than 100 µM; in test [7], 41.3 µM; in [4], more than 100 µM. Further, the TGI is 29 µM in [8] and 72.9 µM in test [5].
Consider `COc1ccc2c(c1)N1CCc3cc(OC)c(OC)cc3C1C2` (stereo not drawn), for which the TGI in [6], in test [1], in test [2], in [3], in test [7] and in [4] was more than 100 µM in each case. Moreover, the TGI in test [8], in [5] and in test [10] was more than 100 µM throughout.
For `Cc1cccc2c(=O)c([Se]c3coc4c(C)cccc4c3=O)coc12`, the TGI in [6] is more than 100 µM; in test [1] it was 48.4 µM; in [2] it was 32.5 µM; in test [7] it was 37.9 µM; in test [4], 33.1 µM; in test [8] it was 32.2 µM. For the same molecule, the TGI in test [5] was 35.2 µM; in test [10], 79 µM.
As for `C[C@]12CCC(=O)C=C1CC[C@@H]1[C@@H]2[C@@H](O)C[C@@]2(C)[C@H]1CC[C@]2(O)C(=O)COC(=O)COCC(=O)O`, the TGI in test [6], in [1], in test [2], in test [3], in test [7] and in [4] was more than 100 µM in each case. In test [5], this molecule had a TGI of more than 100 µM.
Turning to `NC(CCCC(N)P(=O)(O)c1ccccc1)P(=O)(O)c1ccccc1` (stereo not drawn), the TGI in [6], in test [2], in test [3], in test [7], in [4] and in [8] was more than 261 µM in each case. Moreover, the TGI in test [5] and in test [10] was more than 261 µM in each case.
